From paper PMC11528320, “S-MGBs bearing amidine tail groups are potent, selective antiplasmodial agents” (RSC Medicinal Chemistry, 2024)
Like-named read-outs stand apart in the source and are kept apart here.

Experiments:
P. falciparum Dd2 = assay: in vitro asexual P. falciparum imaging assay, Dd2 strain; type: cell-based
Experimental: (§1) The antiplasmodial in vitro assay was performed as previously described.[13] In brief, P. falciparum parasites (3D7 and Dd2 strains) were grown in RPMI-1640 medium supplemented with 25 mM HEPES, 5% AB human male serum, 2.5 mg mL^−1 Albumax II, and 0.37 mM hypoxanthine. Parasites were subjected to two rounds of sorbitol synchronization prior to compound addition. Ring stage parasites were incubated with compounds in 384-well imaging CellCarrier microplates, for 72 h at 37 °C, 90% N2, 5% CO2, 5% O2, parasites stained with 4′,6-diamidino-2-phenylindole (DAPI) and imaged using an Opera QEHS microplate confocal imaging system (PerkinElmer). Images were analysed as previously described,[13] and raw data normalized using the in-plate positive and negative controls to obtain percent inhibition, used to calculate IC50 values, through a four-parameter logistic curve fitting in Prism (GraphPad).

P. falciparum 3D7 = assay: in vitro asexual P. falciparum imaging assay, 3D7 strain; type: cell-based
Experimental: as §1

HEK293 cells = assay: HEK293 cell viability (resazurin) assay; type: cell-based, Human; details: for IC50 / inhibition at 80 µM: Homo sapiens; for IC50: HEK293, 72 h; for SI, HEK293/3D7: ratio of HEK293 IC50 (or relative IC50) to P. falciparum 3D7 IC50; for inhibition at 80 µM: HEK293, 72 h
Experimental: Cell viability was assessed using a minor modification of the protocol previously described.[14] Human embryonic kidney cells (HEK293) were maintained in Dulbecco's modified Eagle's medium supplemented with 10% foetal bovine serum.

[1] = ratio of Dd2 IC50 to 3D7 IC50 (cross-resistance)
[2] = Plasmodium falciparum, DD2, 72 h; read-out: Dd2 IC50
[3] = Plasmodium falciparum, 3D7, 72 h; read-out: 3D7 IC50

Row | Structure (SMILES) | IC50 (P. falciparum Dd2; Plasmodium falciparum, DD2, 72 h, read-out: Dd2 IC50) [nM] | Dd2/3D7 (P. falciparum Dd2; [1]) | IC50 (P. falciparum 3D7; Plasmodium falciparum, 3D7, 72 h, read-out: 3D7 IC50) [nM] | IC50 (P. falciparum Dd2; [2]) [nM] | IC50 (HEK293 cells) [nM] | SI, HEK293/3D7 (HEK293 cells) | IC50 (P. falciparum 3D7; [3]) [nM] | inhibition at 80 µM (HEK293 cells) [%]
1 | CCN(CC)CCCC(C)Nc1ccnc2cc(Cl)ccc12 (centres unmarked) [Chloroquine, chloroquine, reference compound] | 225 ± 84.4 | 7.2 | 31.3 ± 9.7 | – | – | – | – | –
2 | COc1ccc(C[C@H](N)C(=O)N[C@H]2[C@@H](O)[C@H](n3cnc4c(N(C)C)ncnc43)O[C@@H]2CO)cc1 [Puromycin, puromycin, reference compound] | – | 1.2 | – | 49.3 ± 3.5 | 378 | 9 | 41.9 ± 7.2 | –
3 | CCc1nc(N)nc(N)c1-c1ccc(Cl)cc1 [Pyrimeth-amine, pyrimethamine, reference compound] | – | – | – | > 80000 | 3980 | 1478 | 2.69 ± 0.26 | –
4 | COc1ccc2nc3cc(Cl)ccc3c(Nc3cc(CN4CCCC4)c(O)c(CN4CCCC4)c3)c2n1 [Pyronaridine, pyronaridine, reference compound] | – | 1.3 | – | 33.3 ± 6.1 | 3050 | 114 | 26.7 ± 3.8 | –
5 | COc1cccc(/C=C/c2ccc(C(=O)Nc3cc(C(=O)Nc4cc(C(=O)NCCCN(C)C)n(C)c4)n(C)c3)cc2)c1.O=C(O)C(F)(F)F [S-MGB-131] | – | 1.3 | – | 254.4 ± 0.2 | – | – | 200 | 101
6 | Cn1cc(NC(=O)c2cc(NC(=O)c3ccc(/C=C/c4ccc(C(F)(F)F)cc4)cc3)cn2C)cc1C(=O)NCCN1CCOCC1.O=C(O)C(F)(F)F [S-MGB-176] | – | 1.6 | – | 1236 ± 3 | – | >53 | 756 ± 0.8 | 80
7 | Cn1cc(NC(=O)c2cc(NC(=O)c3ccc(/C=C/c4ccc5nsnc5c4)cc3)cn2C)cc1C(=O)NCCN1CCOCC1.O=C(O)C(F)(F)F [S-MGB-188] | – | 1.1 | – | 61.9 ± 0.3 | – | >193 | 57 ± 0.1 | 86
8 | CC(C)n1cc(NC(=O)c2cc(NC(=O)c3ccc(/C=C/c4cnc5ccccc5c4)cc3)cn2C)cc1C(=O)NCCN1CCOCC1.O=C(O)C(F)(F)F [S-MGB-192] | – | 1.1 | – | 108 ± 20.6 | 3190 | 33 | 96.3 ± 12.8 | –
9 | CN(C)c1ccc(/C=C/c2ccc(C(=O)Nc3cc(C(=O)Nc4cc(C(=O)NCCN5CCOCC5)n(C)c4)n(C)c3)cn2)cc1.O=C(O)C(F)(F)F [S-MGB-245] | – | 1.1 | – | 169.1 ± 0.5 | 2750 | 17 | 161 ± 0.5 | –
10 | CN(C)CCNC(=O)c1cc(NC(=O)c2cc(NC(=O)c3ccc(/C=C/c4ccc(N(C)C)cc4)nc3)cn2C)cn1C.O=C(O)C(F)(F)F [S-MGB-246] | – | 1.2 | – | 53 ± 0.4 | 3860 | 90 | 43 ± 0.6 | –
11 | COc1cccc(/C=C/c2ccc(C(=O)Nc3cc(C(=O)Nc4cc(C(=O)NCCN(C)C)n(C)c4)n(C)c3)cc2)c1.O=C(O)C(F)(F)F [S-MGB-247] | – | 1.3 | – | 138.6 ± 0.2 | – | >183.7 | 108.9 ± 0.2 | 100
12 | CN(C)CCNC(=O)c1cc(NC(=O)c2cc(NC(=O)c3ccc(/C=C/c4cnc5ccccc5c4)cc3)cn2C)cn1C.O=C(O)C(F)(F)F [S-MGB-248] | – | 1.7 | – | 57 ± 0.6 | 3130 | 94 | 33.4 ± 0.7 | –
13 | CC(C)CCn1cc(NC(=O)c2cc(NC(=O)c3cc(NC(=N)c4cc5ccccc5cn4)cn3C)cn2C)cc1C(=O)NCCCN(C)C.O=C(O)C(F)(F)F [S-MGB-330] | – | 1.6 | – | 636.1 ± 0.4 | – | >98.1 | 407.7 ± 0.1 | 100
14 | CN(C)CCCNC(=O)c1cc(NC(=O)c2cc(NC(=O)c3cc(NC(=N)c4cc5ccccc5cn4)cn3C)cn2C)cn1C.O=C(O)C(F)(F)F [S-MGB-337] | – | 1.1 | – | 101.8 ± 0.2 | – | >219.7 | 95.6 | 101
15 | Cn1cc(NC(=O)c2cc(NC(=O)c3ccc(/C=C/C(=O)Nc4ccccc4O)cc3)cn2C)cc1C(=O)NCCC(=N)N.O=C(O)C(F)(F)F [S-MGB-361] | – | 0.9 | – | 558.5 ± 0.4 | – | >63.1 | 633.9 ± 0.2 | 90
16 | COc1ccc(/C=C/c2ccc(C(=O)Nc3cc(C(=O)Nc4cc(C(=O)NCCC(=N)N)n(C)c4)n(C)c3)cc2)cc1.O=C(O)C(F)(F)F [S-MGB-367] | – | – | – | 620.3 ± 0.3 | – | >108.9 | 367.3 ± 0.9 | 81
17 | CC(C)CCc1sc(NC(=O)c2cc(NC(=O)c3ccc(/C=C/c4ccc(F)cc4)nc3)cn2C)nc1C(=O)NCCCN(C)C.O=C(O)C(F)(F)F [S-MGB-376] | – | 0.9 | – | 135 ± 1.6 | 9100 | 62 | 147.2 ± 1.4 | –
18 | CC(C)CCc1sc(NC(=O)c2cc(NC(=O)c3ccc(/C=C/c4ccc(C(F)(F)F)cc4)cc3)cn2C)nc1C(=O)NCCCN(C)C.O=C(O)C(F)(F)F [S-MGB-377] | – | 1.4 | – | 105 ± 6.3 | 4300 | 59 | 73.1 ± 4.7 | –
19 | CC(C)CCc1sc(NC(=O)c2cc(NC(=O)c3ccc(/C=C/c4cccc(F)c4)cc3)cn2C)nc1C(=O)NCCCN(C)C.O=C(O)C(F)(F)F [S-MGB-378] | – | 1.1 | – | 171 ± 2.9 | 10500 | 70 | 150 ± 4 | –
20 | CC(C)CCc1sc(NC(=O)c2cc(NC(=O)c3ccc(/C=C/c4ccc(F)cc4)cc3)cn2C)nc1C(=O)NCCCN(C)C.O=C(O)C(F)(F)F [S-MGB-379] | – | 1.0 | – | 148 ± 5.4 | 8340 | 56 | 150 ± 2.7 | –
21 | CC(C)CCc1sc(NC(=O)c2cc(NC(=O)c3ccc(/C=C/c4cccc(C(F)(F)F)c4)nc3)cn2C)nc1C(=O)NCCCN(C)C.O=C(O)C(F)(F)F [S-MGB-380] | – | 1.1 | – | 83.9 ± 3.6 | 8200 | 110 | 74.7 ± 2.8 | –
22 | CC(C)CCc1sc(NC(=O)c2cc(NC(=O)c3cc(NC(=O)c4cccc(F)c4)cn3C)cn2C)nc1C(=O)NCCCN(C)C.O=C(O)C(F)(F)F [S-MGB-386] | – | 0.8 | – | 207.1 ± 1.3 | – | >157 | 254.9 ± 1.2 | 101
23 | Cn1cc(NC(=O)c2cc(NC(=O)c3ccc(NC(=O)c4ccc(F)cc4)cc3)cn2C)cc1C(=O)NCCC(=N)N.O=C(O)C(F)(F)F [S-MGB-388] | – | 1.3 | – | 228.6 ± 2 | – | >192.9 | 181 ± 2.2 | 93
24 | Cn1cc(NC(=O)c2cc(NC(=O)c3ccc(NC(=O)c4cccc(F)c4)cc3)cn2C)cc1C(=O)NCCC(=N)N.O=C(O)C(F)(F)F [S-MGB-389] | – | 0.6 | – | 488 ± 1.8 | – | >46.6 | 857.5 ± 1.3 | 92
25 | Cn1cc(NC(=O)c2cc(NC(=O)c3ccc(/C=C/c4ccc(F)cc4)cc3)cn2C)cc1C(=O)NCCC(=N)N.O=C(O)C(F)(F)F [S-MGB-390] | – | 1.2 | – | 640.2 ± 0.6 | – | >75.1 | 532.6 ± 0.9 | 78
26 | Cn1cc(NC(=O)c2cc(NC(=O)c3ccc(/C=C/c4cccc(F)c4)cc3)cn2C)cc1C(=O)NCCC(=N)N.O=C(O)C(F)(F)F [S-MGB-391] | – | 1.9 | – | 1295.5 ± 0.7 | – | >59.6 | 671.3 ± 1.4 | 100
